The values below come from patent publication US11926580B2, “Hydropersulfide precursors” (THE JOHNS HOPKINS UNIVERSITY, priority 2018, dated 2024).

A short description of series [1]: Kinetics of RSSH generation by 1H NMR with NEM trapping. To be noted: 10% D2O, 37° C.; for half-life at 1 mM: phosphate buffer, NEM, pH 7.4 buffer, read-out: half-life of precursor; for t1//2 (mm) / Hydropersulfide Yield (%) (RSS-NEM adduct): precursor 1 mM, NEM 20 mM, pH 7.4 phosphate buffer; for Hydropersulfide Yield (%) (RSS-NEM adduct): based upon % precursor consumed. Type of series: physicochemical. As to the method:
FIGS. 3a and 3b provide graphs of (a) Stacked ^1H NMR spectra showing the decomposition of precursor 4d (1 mM) with NEM (20 mM) in 10% D2O, phosphate buffer (PB), pH 7.4 at 37° C. to produce RSS-NEM adduct 5a; Precursor 4d was introduced to a solution of NEM in PB at t=0 min and following equilibration and shimming, the first 1H NMR spectrum was obtained after 6 min.; and (b) The kinetics of decomposition of 4d (circles represent the —CH3 protons (Ha) of the precursor) and formation of 5a (squares represent the diasterotopic protons (Hb) of the succinimide ring of the two product diastereomers).
Next, ^1H NMR spectroscopy was used to monitor the kinetics of RSSH generation from 4d by trapping with NEM in 10% D2O, pH 7.4 buffer containing DMSO as an internal standard at 37° C. An increase in the peak intensity attributed to one of the diasterotopic protons of the succinimide ring of the two product diastereomers (Hb, δ2.99-2.91 ppm) was observed (FIG. 3a). The other diasterotopic proton (Hc, δ3.30-3.21 ppm) overlaps with N-ethylmaleamic acid (NEMA), a product derived from NEM hydrolysis. Similarly, the intensity of two methyl group protons of precursor 4d (δ1.44 and 1.41 ppm) decreased as four methyl group protons of the two diastereomers of 5a (Ha, δ1.40, 1.37 ppm and 1.40, 1.34 ppm) increased, supporting the clean conversion of 4d to 5a. The ^1H NMR peak assignments for 5a are consistent with the RSS-NEM adduct formed during S-methoxycarbonyl penicillamine disulfide (MCPD) decomposition (Scheme 1, eq. 3) in the presence of NEM.
All starting materials were of reagent grade and used without further purification. N-acetyl-D-penicillamine, N-ethylmaleimide, N-ethylmaleamic acid, and phenylcyanamide were purchased from Sigma-Aldrich and used without further purification. Thiourea and N-substituted thioureas were purchased from Alfa Aesar and Oakwood Chemicals. Deuterated solvents (Cambridge Isotope Laboratories) were used for NMR spectroscopic analyses. NMR spectra were obtained on a 400 MHz FT-NMR spectrometer. All chemical shifts are reported in parts per million (ppm) relative to residual CHCl3 (7.26 ppm for ^1H, 77.2 ppm for ^13C), residual H2O (4.79 ppm for ^1H), residual DMSO (2.50 ppm for ^1H, 39.5 for ^13C), or residual MeOH (3.31 ppm for ^1H, 49.2 ppm for ^13C). The kinetics of RSSH generation were measured using a Varian Inova 800 MHz spectrometer. UPLC-MS analysis was carried out with a Waters Acquity/Xevo-G2 UPLC-MS system equipped with an ACQUITY UPLC BEH C18 column (2.1 mm×50 mm, 1.7 μm). The mass signals for products of hydropersulfide trapping with NEM were obtained via deconvolution using MassLynx 4.1 software. The pH measurements were performed using a Fisher Scientific Accumet AB15 pH-meter. Analytical thin layer chromatography (TLC) was performed on Sigma-Aldrich silica gel on TLC A1 foils with fluorescent indicator F254 plates. Visualization was accomplished with UV light (254 nm) or staining with KMnO4. Flash column chromatography was performed using SiliaFlash P60 (230-400 mesh) silica gel. Melting points were recorded using MEL-TEMP® capillary melting point apparatus and are uncorrected.

Series [2] in a line: UPLC-MS analysis of RSSH trapping with N-ethylmaleimide. To be noted: for RSSH generation (RSS-NEM adduct formation): NEM trap. The series is classed as physicochemical. As to the method: FIGS. 2a and 2b provide graphs of (a) UPLC-MS chromatograms of RSSH generation from 4d (200 μM) in the presence of NEM (4 mM) incubated in pH 7.4 ammonium bicarbonate (100 mM) with DTPA (100 μM) at 37° C. A peak at 3.7 min corresponding to N-ethylmaleamic acid (NEMA), derived from NEM hydrolysis, was observed under these conditions (see SI); (b) MS spectrum (ESI+ mode) of the product eluting at 5.06 min corresponding to 5a with m/z 349.0885 (expected m/z 349.0886).
FIG. 5 provides a graph of UPLC-MS chromatograms of RSSH generation from compound 1 (1 mM) in the presence of NEM (5 mM) incubated in pH 7.4 ammonium bicarbonate buffer containing DTPA (100 μM) for 30 min at 37° C. The asterisk indicates the methyl ester analogue of dialkyl trisulfide 2, which was also formed due to the presence of minor amount of methyl ester analogue of 1. A peak at 3.7 min corresponding to N-ethylmaleamic acid (NEMA), derived from NEM hydrolysis, was observed under these conditions.
RSSH trapping in the presence of N-ethylmaleimide (NEM) was carried out with a Waters Acquity/Xevo-G2 UPLC-MS system equipped with an ACQUITY UPLC BEH C18 column (2.1 mm×50 mm, 1.7 μm). Typically, RSSH precursor (1 eq) was incubated with NEM (5 to 20 eq) in freshly prepared pH 7 4 ammonium bicarbonate buffer (100 mM) containing DTPA (100 μM) at 37° C. An aliquot of the reaction mixture (300 μL) was withdrawn at specified time points, quenched with 0.25% formic acid (300 μL), and filtered through a 0.22 μm filter. The samples were then loaded into vials in an autosampler maintained at 4° C. and analyzed using UPLC-MS as follows: Mobile phase: 0-1 min 90% water+0% ACN+10% formic acid (0.1%); 1-7.5 min gradient up to 10% water+80% ACN+10% formic acid (0.1%); 7.5-8.4 min 10% water+80% ACN+10% formic acid (0.1%); 8.4-8.5 min gradient up to 90% water+0% ACN+10% formic acid (0.1%), 8.5-10 min 90% water+0% ACN+10% formic acid (0.1%). Flow rate=0.3 mL min^−1. The mass signals for products of RSSH trapping with NEM were obtained via deconvolution using MassLynx 4.1 software.
To a solution of NEM (5 mM) in pH 7 4 ammonium bicarbonate (100 mM) with DTPA (100 μM) in a 20-mL scintillation vial, hydropersulfide precursor 1 (1 mM, total reaction volume 3 mL) was added. The resulting mixture was incubated at 37° C. for 30 min. An aliquot of 300 μL reaction mixture was withdrawn, quenched with 300 μL of formic acid (0.25%) and analyzed using UPLC-MS.

Series [3] is described as follows: Kinetics of RSSH generation by 1H NMR with NEM trapping. Type of series: physicochemical. As to conditions: pH 7.4 buffer with 20% MeOD.
Series [4] has as its system cardiomyocyte H9c2 cells. Description: Cytotoxicity / cell viability assay with Cell Counting Kit-8. Type of series: cell-based. To be noted: up to 200 μM, 24 h, CCK-8. How it is done: (§1) FIGS. 6a and 6b provide graphs of (a) the cell viability of cardiomyocyte H9c2 cells following incubation of the RSSH precursor 4d (50 μM) and phenylcynamide (200 μM) for 24 h; and (b) the cytoprotective effects of the RSSH precursor 4d observed following pretreatment of H9c2 cells with either 4d (50 μM) or phenylcynamide (200 μM) for 2 h, followed by hydrogen peroxide (200 μM) treatment for 2 h. Quantification of cell viability was carried out using Cell Counting Kit-8 (CCK-8). Results are expressed as the mean±SEM (n=6).
The cytotoxicity and impact on cell viability of the hydropersulfide (RSSH) precursor 4d have been examined using the cardiomyocyte H9C2 cell line and Cell Counting Kit-8 (CCK-8). A cell viability assay reveled that 4d was not cytotoxic at 50 μM ([…]).

Series [5] deals with cardiomyocyte H9c2 cells. Put plainly: Cytoprotection against hydrogen peroxide-induced cytotoxicity. As to conditions: pretreatment 2 h (4d 50 μM; phenyl cyanamide 200 μM), then H2O2 200 μM 2 h, CCK-8. The series is classed as cell-based. How it is done: as §1
Since hydropersulfides are reported to mitigate oxidative stress, the ability of RSSH precursor 4d to protect cardiomyocyte H9c2 cells from cytotoxicity induced by hydrogen peroxide (H2O2) was tested.

Molecules are shown by their SMILES. Values joined by “and” are separate entries in the source; they are usually repeats but may differ in a detail not shown here. Equal entries are not always repeated.

`COc1ccc(NC(=N)SSC(C)(C)C(NC(C)=O)C(=O)O)cc1.Cl` (centres unmarked) [Precursor 4e, ((1-acetamido-1-carboxy-2-methylpropan-2-yl)disulfaneyl)((4-methoxyphenyl)amino) methaniminium chloride] yielded a melting point of 142 to 144 °C. Moreover, in series [1], the half-life at 1 mM came out at 5 min; the “t1//2 (mm)” value turned out to be 5.0 ± 0.5 min; the “Hydropersulfide Yield (%) (RSS-NEM adduct)” value (shortened to “Hydropersulfide Yield (%)”) is 75% and 75 ± 2%.
Compound `CC(=O)NC(CSSC(=N)N)C(=O)O.Cl` (centres unmarked) [Precursor 1, ((2-acetamido-2-carboxyethyl)disulfaneyl)(amino)methaniminium chloride] gave a melting point of 70 to 72 °C. For the same compound, the disappearance of precursor entry in series [2] (1 mM with NEM 5 mM, pH 7.4 buffer, 37° C., 30 min) is “complete disappearance”. Moreover, in series [2] (pH 7.4 buffer, 37° C., UPLC-MS), the “RSSH generation (RSS-NEM adduct formation)” value (“RSSH generation” for short) is recorded as “no evidence of persulfide-NEM adduct formation”.
For the compound `CC(=O)NC(C(=O)O)C(C)(C)SSC(=N)Nc1ccc(C(F)(F)F)cc1.Cl` (centres unmarked) [Precursor 4h, ((1-acetamido-1-carboxy-2-methylpropan-2-yl)disulfaneyl)((4-(trifluoromethyl)phenyl)amino)methaniminium chloride], the melting point was 151 to 153 °C. Further, in series [3] (NEM, 37° C.), the “Hydropersulfide Yield (%)” value is 95% and 95 ± 2^d %; the “t1//2 (mm)” value is reported as 6.8 ± 0.2 min. For the same compound, in series [3] (pH 7.4, read-out: half-life of precursor), the half-life was found to be 6.8 min.
With `N#CNc1ccccc1` [phenyl cyanamide, reference compound], in series [4], the “tolerability (cell viability)” value was “well tolerated”. Moreover, the “cytoprotection from H2O2-induced cytotoxicity” value in series [5] was “did not protect”.
In turn, `CC(=O)NC(C(=O)O)C(C)(C)SSC(=N)Nc1ccc(Cl)cc1.Cl` (centres unmarked) [Precursor 4g, ((1-acetamido-1-carboxy-2-methylpropan-2-yl)disulfaneyl)((4-chlorophenyl)amino) methaniminium chloride] registered a melting point of 143 to 145 °C. In addition, in series [1], the half-life at 1 mM came to 9.3 min; the “t1//2 (mm)” value came out at 9.3 ± 0.6 min; the “Hydropersulfide Yield (%)” value was 91% and 91 ± 1%.
Turning to `CC(C)(C)SSC(=N)Nc1ccccc1.Cl` [Precursor 9, (t-butyldisulfaneyl)(phenylamino)methaniminium chloride], in series [1], the half-life at 1 mM amounted to 17.3 min and the “Hydropersulfide Yield (%)” value is reported as 97%.
As to `CNC(=N)SSC(C)(C)C(NC(C)=O)C(=O)O.Cl` (centres unmarked) [Precursor 4b, ((1-acetamido-1-carboxy-2-methylpropan-2-yl)disulfaneyl)(methylamino) methaniminium chloride], the melting point lay within 153 to 155 °C. Further, the “RSSH generation” value in series [2] (pH 7.4 buffer, 37° C., UPLC-MS) was “reduced compared with that from 4a”.
As for `CC(=O)NC(C(=O)O)C(C)(C)SSC(=N)Nc1ccccc1Cl.Cl` (centres unmarked) [Precursor 4f, ((1-acetamido-1-carboxy-2-methylpropan-2-yl)disulfaneyl)((2-chlorophenyl)amino) methaniminium chloride], the melting point is 152 to 154 °C. For the same compound, in series [1], the half-life at 1 mM was 17.3 min; the “t1//2 (mm)” value turned out to be 173 ± 0.4 min; the “Hydropersulfide Yield (%)” value is 95% and 95 ± 2%.
For `COC(=O)C(NC(C)=O)C(C)(C)SSC(=N)N.Cl` (centres unmarked) [Precursor 4c, ((3-acetamido-4-methoxy-2-methyl-4-oxobutan-2-yl)disulfaneyl)(amino)methaniminium chloride], the melting point fell in the range of 190 to 192 °C. Moreover, the “RSS-NEM adduct 5b yield” value in series [2] (decomposition in the presence of NEM, UPLC-MS) is “less than 50%”.
`CC(=O)NC(C(=O)O)C(C)(C)SSC(=N)N.Cl` (centres unmarked) [Precursor 4a, ((1-acetamido-1-carboxy-2-methylpropan-2-yl)disulfaneyl)(amino)methaniminium chloride] displayed a melting point of 154 to 156 °C. In addition, in series [2] (pH 7.4 buffer, 37° C., UPLC-MS), the “RSSH generation” value is “formation of RSS-NEM 5a”.
